# Experimental data: PMC4520450, “Procyanidins Negatively Affect the Activity of the Phosphatases of Regenerating Liver” (PLoS ONE, 2015)
# Legend:
# PP2A = target: T1, PP2A (Homo sapiens, UniProt P67775); experiment: DiFMUP assay for PP2A; format: biochemical; details: 0.05 U PP2A, 30 min preincubation, 25°C, no BSA, mean ± SEM (n = 3–5), read-out: IC50 (Ki) PP2A
# T1 construct: purified from human red blood cells; purchased Merck Millipore; host or cells: human red blood cells
# Description: (§1) Fig 2 Effect of polyphenolic compounds 8 (A), 9 (B), 10 (C) and 11 (D) on the phosphatase activity of PRL-1, PRL-2, PRL-3, PP1, and PP2A. Proteins were incubated for 30 min with 0–1000 μM of the corresponding procyandin 8–11. Phosphatase activity was measured in the presence of DiFMUP at 25°C using the concentration corresponding to the KM of each protein. The KM for PRLs was determined separately (PRL-3 = 21 μM, PRL-2 and PRL-1 = 24 μM). The KM for PP1 (91 μM) and for PP2A (100 μM) was taken from the literature. Protein concentrations are 50 nM for all PRLs and 2 mU for PP1 and 0.05 U for PP2A (see the Experimental Procedures). Phosphatase activity in the absence of inhibitors was set as 100%. Data represent means ± standard errors of the mean (n = 3–5).
# (§2) BSA, which is usually supplemented to the assay buffer for stabilizing the PPs was however excluded, as BSA is known to form complexes with polyphenolic compounds [40–42] and thus would decrease the concentrations of the inhibitor in the assay. […] In contrast, the phosphatase activity of PP2A was suppressed to a much lesser extent with weak (for trimer 9 and hexamer 11) and strong statistical significance (dimer 8 and tetramer 10). Thus our results corroborate the data reported previously.
# Chemicals and vendors were as follows: Synthesis of Procyanidins (dimer to dodecamer) was done as previously reported. EGCG, EGC, ECG and EC were synthesized as previously reported or purchased from Sigma. (+)-Catechin and 3-(4,5-dimethylthiazol-2-yl)-2,5-diphenyltetrazolium bromide (MTT) were obtained from Sigma. 6,8-Difluoro-4-Methylumbelliferyl Phosphate (DiFMUP), propidium iodide and calcein AM were from lifescience technologies. Cell dissociation solution (10X) was purchased from amsbio. PP1c (recombinant from E. coli) was purchased from NewEngland Biolabs and PP2A (purified from human red blood cells, contains different subunits according to manufacturer) from Merck Millipore. Transwell plates (BRANDplates) and insert stripes for the migration assay were purchased from Brand GmbH. Black 96 well plates (96F Nunclon Delta) were purchased from Thermo Scientific. Transparent 96 well assay plates with UV transparent bottom were purchased from Corning Inc. Wound healing experiments were carried out with μ-dish 35 mm culture inserts, which were purchased from Ibidi.
# DiFMUP assay for PP2A: In a final reaction volume of 100 μL PP2A (0.05 U final concentration, according to manufacturer’s instructions) were incubated with decreasing concentrations of the inhibitory polyphenols for 30 minutes at 25°C. The assay buffer contained 50 mM TrisCl (pH 7.5), 250 mM NaCl, 0.1 mM EDTA, 1 mM MnCl2, and 2 mM dithiothreitol (DTT). […] Monitoring of the fluorescent dephosphorylation product was monitored and data analyzed as described above.
# PP1 = target: T2, PP1 (Oryctolagus cuniculus, UniProt P62139); experiment: DiFMUP assay for PP1; format: biochemical; details: 2 mU PP1c, 30 min preincubation, 25°C, DiFMUP, no BSA; mean ± SEM (n = 3–5); read-out: IC50 (Ki) PP1
# T2 construct: purchased NewEngland Biolabs; host or cells: E. coli
# Description: as §1, §2
# DiFMUP assay for PP1: In a final reaction volume of 100 μL PP1c (2 mU final concentration, according to manufacturer’s instructions) were incubated with decreasing concentrations of the inhibitory polyphenols for 30 minutes at 25°C. The assay buffer contained 25 mM imidazole (pH 7.4), 1 mM dithiothreitol (DTT), and 50 mM NaCl. Bovine serum albumin (BSA) was excluded due to possible binding of the polyphenolic compounds. After the incubation time 20 μL DiFMUP (6,8-Difluoro-4-methylumbelliferyl phosphate) was added to reach a final concentration of 100 μM. Monitoring of the fluorescent dephosphorylation product was monitored and data analyzed as described above.
# T2 sequence (P62139 whole entry): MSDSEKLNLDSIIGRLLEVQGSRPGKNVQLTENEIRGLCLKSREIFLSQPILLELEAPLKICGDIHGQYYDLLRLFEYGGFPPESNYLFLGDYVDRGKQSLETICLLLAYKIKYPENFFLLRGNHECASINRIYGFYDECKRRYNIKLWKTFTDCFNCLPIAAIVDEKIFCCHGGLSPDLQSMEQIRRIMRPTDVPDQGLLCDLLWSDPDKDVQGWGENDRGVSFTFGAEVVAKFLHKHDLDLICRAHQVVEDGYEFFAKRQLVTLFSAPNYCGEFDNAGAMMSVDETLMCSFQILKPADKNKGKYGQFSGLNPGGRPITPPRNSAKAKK
# T1 sequence (P67775 whole entry): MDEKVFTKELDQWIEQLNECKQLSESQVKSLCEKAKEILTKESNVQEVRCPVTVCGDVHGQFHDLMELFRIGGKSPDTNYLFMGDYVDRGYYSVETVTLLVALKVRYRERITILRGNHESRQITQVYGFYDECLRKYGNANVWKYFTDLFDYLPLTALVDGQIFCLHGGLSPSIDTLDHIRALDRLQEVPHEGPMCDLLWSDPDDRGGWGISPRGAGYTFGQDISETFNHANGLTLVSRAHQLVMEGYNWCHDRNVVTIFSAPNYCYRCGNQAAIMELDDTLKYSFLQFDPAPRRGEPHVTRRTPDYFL
# T1 sequence (P30153 2-589 partner limits assumed): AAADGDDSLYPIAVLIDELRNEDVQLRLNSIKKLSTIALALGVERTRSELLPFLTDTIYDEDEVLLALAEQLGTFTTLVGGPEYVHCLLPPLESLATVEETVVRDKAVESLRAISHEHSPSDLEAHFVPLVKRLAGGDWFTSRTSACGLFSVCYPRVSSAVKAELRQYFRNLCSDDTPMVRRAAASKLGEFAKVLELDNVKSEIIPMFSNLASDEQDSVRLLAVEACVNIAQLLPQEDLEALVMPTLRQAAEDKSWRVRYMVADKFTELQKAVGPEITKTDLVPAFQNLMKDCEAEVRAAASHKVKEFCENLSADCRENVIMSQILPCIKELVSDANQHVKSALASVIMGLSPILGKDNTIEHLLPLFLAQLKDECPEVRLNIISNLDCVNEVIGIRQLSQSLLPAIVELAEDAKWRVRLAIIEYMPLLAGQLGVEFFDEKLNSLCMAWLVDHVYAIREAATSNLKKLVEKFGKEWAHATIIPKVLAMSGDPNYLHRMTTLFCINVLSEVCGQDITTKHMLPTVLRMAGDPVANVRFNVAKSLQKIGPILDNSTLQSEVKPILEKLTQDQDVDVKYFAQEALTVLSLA
SMILES,IC50 (PP2A) [µM],IC50 (PP1) [µM]
"Oc1cc(O)c2c(c1)O[C@H](c1ccc(O)c(O)c1)[C@@H](O)[C@@H]2c1c(O)cc(O)c2c1O[C@H](c1ccc(O)c(O)c1)[C@@H](O)C2 [Procyanidin B3 (8), Procyanidin B3]",> 1000,383 ± 43
"Oc1cc(O)c2c(c1)O[C@H](c1ccc(O)c(O)c1)[C@@H](O)[C@@H]2c1c(O)cc(O)c2c1O[C@H](c1ccc(O)c(O)c1)[C@@H](O)[C@@H]2c1c(O)cc(O)c2c1O[C@H](c1ccc(O)c(O)c1)[C@@H](O)C2 [Procyanidin C2 (9), Procyanidin C2]",213 ± 72,88 ± 13.7
